This note sets out measurements from patent publication US20260248972A1, “DUAL RECEPTOR TARGETING RADIOLIGANDS AND USES THEREOF RELATED APPLICATIONS” (priority 2022, published 2026).

One experiment has as its target T1, CCK2R (Rattus norvegicus, UniProt P30553).
T1 construct: host or cells: AR42J cells
T1 sequence (P30553 1-452): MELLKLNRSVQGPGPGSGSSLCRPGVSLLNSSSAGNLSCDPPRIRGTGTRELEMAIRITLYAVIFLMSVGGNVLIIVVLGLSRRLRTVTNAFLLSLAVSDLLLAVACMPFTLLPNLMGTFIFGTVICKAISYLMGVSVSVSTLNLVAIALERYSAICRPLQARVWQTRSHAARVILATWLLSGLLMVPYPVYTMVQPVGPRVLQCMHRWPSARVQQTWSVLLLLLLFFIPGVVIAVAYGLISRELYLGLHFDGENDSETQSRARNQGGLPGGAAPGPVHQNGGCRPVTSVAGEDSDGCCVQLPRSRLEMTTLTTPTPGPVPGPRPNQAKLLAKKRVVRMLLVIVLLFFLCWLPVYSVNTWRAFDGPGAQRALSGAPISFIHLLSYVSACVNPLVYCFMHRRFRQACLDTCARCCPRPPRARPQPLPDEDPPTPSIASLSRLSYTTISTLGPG
As to the kind of experiment: Competitive cell-binding assay on AR42J cells with 125I-C3 as competitive ligand. The note with it: for IC50: AR42J cells, 125I-C3 competitive ligand, 37° C. 1 h, read-out: CCK2R/IC50. The procedure:
(§1) AR42J cells (ATCC) were maintained in RPMI-1640 medium (Gibco) supplemented with 15% fetal bovine serum (Gibco) and 1% penicillin-streptomycin (BI) at 37° C. in a humidified incubator with 5% CO2. The culture medium was replaced with fresh medium every 2-3 days. Experiments were performed with cells at 70-80% confluence.
(§2) Binding Affinity Tested by Using ^125I-Labeled Competitive Ligands.
(§3) The binding affinities of test compounds were determined by a competitive cell-binding assay using ^125I-C1 and ^125I-C3 as the competitive ligand. The suspended AR42J cells at a density of 1~3×10^6 cells/mL in binding buffer (RPMI-1640 medium supplemented with 0.25% bovine serum albumin) were transferred to a MultiScreen-DV Filter Plate (Millipore) with 100 μL per well except the blank group where the binding buffer was used instead. The cells were then incubated with ^125I-C1 and ^125I-C3 (0.02 μCi/well) in the presence of increasing concentrations (0-10000 nM) of test compounds at 37° C. for 1 h (n=3). The final volume in each well was maintained at 200 μL and insufficient volume was adjusted by the binding buffer. After the 1 h incubation, unbound ^125I-competitive ligands were removed by filtration using a Multiscreen vacuum manifold (Millipore) followed by rinses with the binding buffer (3 times). The filters were collected, and their radioactivity were individually measured by γ counter (2480 WIZARD2, PerkinElmer). The best-fit IC50value (inhibitory concentration when 50% of the bound ^125I-C1 and ^125l I-C3 on cells were displaced) of test compounds were calculated by fitting the data with nonlinear regression using GraphPad Prism 8.0.1.

Another experiment has as its target T2, SSTR2 (Rattus norvegicus, UniProt P30680).
T2 construct: host or cells: AR42J cells
As to the kind of experiment: Competitive cell-binding assay on AR42J cells with 125I-C1 as competitive ligand. The note with it: for IC50: AR42J cells, 125I-C1 competitive ligand, 37° C. 1 h, read-out: SSTR2/IC50. The procedure:
as §1, §2, §3

SMILES strings stand for the structures. Like-named read-outs stand apart in the source and are kept apart here.

T2 sequence (P30680 whole entry): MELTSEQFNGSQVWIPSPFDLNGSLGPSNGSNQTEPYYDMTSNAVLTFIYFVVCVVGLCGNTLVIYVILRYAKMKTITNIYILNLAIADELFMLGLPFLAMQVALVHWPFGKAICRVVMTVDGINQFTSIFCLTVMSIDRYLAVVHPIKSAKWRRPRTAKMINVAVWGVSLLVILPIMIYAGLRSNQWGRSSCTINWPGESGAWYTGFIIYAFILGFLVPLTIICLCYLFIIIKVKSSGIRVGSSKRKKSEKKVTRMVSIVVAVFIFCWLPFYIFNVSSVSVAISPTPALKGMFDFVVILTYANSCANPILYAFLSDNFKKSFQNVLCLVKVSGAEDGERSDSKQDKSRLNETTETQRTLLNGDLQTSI

For the compound `C[C@@H](O)[C@H](NC(=O)[C@@H]1CSSC[C@H](NC(=O)[C@@H](Cc2ccccc2)NC(=O)COCCOCCNC(=O)[C@H](CCCCNC(=O)COCCOCCNC(=O)c2cccc(NC(=O)N[C@@H]3CN(C4CCCCC4)c4ccccc4N(CC(=O)C(C)(C)C)C3=O)c2)NC(=O)CN2CCN(CC(=O)O)CCN(CC(=O)O)CCN(CC(=O)O)CC2)C(=O)N[C@@H](Cc2ccc(O)cc2)C(=O)N[C@H](Cc2c[nH]c3ccccc23)C(=O)N[C@@H](CCCCN)C(=O)N[C@@H]([C@@H](C)O)C(=O)N1)C(=O)O` [Compound I-43, DOTA-K(-OEG-Z360)-OEG-f[CYwKTC]T-OH], the “Relative Binding Affinity CCK2R” value at CCK2R is given as 4.0. Moreover, at SSTR2, the “Relative Binding Affinity SSTR2” value is 0.61.
The matching figures for `C[C@@H](O)[C@H](NC(=O)[C@@H]1CSSC[C@H](NC(=O)[C@@H](Cc2ccccc2)NC(=O)COCCOCCNC(=O)[C@H](CCCCNC(=O)CCC(C(=O)O)N2CCN(CC(=O)O)CCN(CC(=O)O)CCN(CC(=O)O)CC2)NC(=O)COCCOCCNC(=O)c2cccc(NC(=O)N[C@@H]3CN(C4CCCCC4)c4ccccc4N(CC(=O)C(C)(C)C)C3=O)c2)C(=O)N[C@@H](Cc2ccc(O)cc2)C(=O)N[C@H](Cc2c[nH]c3ccccc23)C(=O)N[C@@H](CCCCN)C(=O)N[C@@H]([C@@H](C)O)C(=O)N1)C(=O)O` (stereo partly shown) [Compound I-31, Z360- OEG- K(DOTAGA)- OEG- f[CYwKTC]T- OH]: 8.8 and 4.75.
On to `C[C@@H](O)C(NC(=O)[C@@H]1CSSC[C@H](NC(=O)[C@@H](Cc2ccccc2)NC(=O)COCCOCCNC(=O)[C@H](CCCCNC(=O)CC[C@H](NC(=O)CNC(=O)c2cccc(NC(=O)N[C@@H]3CN(C4CCCCC4)c4ccccc4N(CC(=O)C(C)(C)C)C3=O)c2)C(=O)O)NC(=O)COCCOCCNC(=O)CCC(C(=O)O)N2CCN(CC(=O)O)CCN(CC(=O)O)CCN(CC(=O)O)CC2)C(=O)N[C@@H](Cc2ccc(O)cc2)C(=O)N[C@H](Cc2c[nH]c3ccccc23)C(=O)N[C@@H](CCCCN)C(=O)N[C@@H]([C@@H](C)O)C(=O)N1)C(=O)O` (stereo in doubt) [Compound I-20, DOTAGA- OEG- K(-gE- G- Z360)- OEG- f[CYwKTC]T- OH], for which the IC50 was found to be 1.4 nM on CCK2R and 0.781 nM at SSTR2. Moreover, the “Relative Binding Affinity CCK2R” value on CCK2R (based on mean IC50, C-2 = 1.00) is given as 12.1. Besides, the “Relative Binding Affinity SSTR2” value at SSTR2 (based on mean IC50, C-1 = 1.00) is 3.60.
For `C[C@@H](O)[C@H](NC(=O)[C@@H]1CSSC[C@H](NC(=O)[C@@H](Cc2ccccc2)NC(=O)COCCOCCNC(=O)[C@H](CCCCNC(=O)CN2CCN(CC(=O)O)CCN(CC(=O)O)CCN(CC(=O)O)CC2)NC(=O)CC[C@H](NC(=O)COCCOCCNC(=O)CC[C@H](NC(=O)[C@H](CCC(=O)O)NC(=O)c2cccc(NC(=O)N[C@@H]3CN(C4CCCCC4)c4ccccc4N(CC(=O)C(C)(C)C)C3=O)c2)C(=O)O)C(=O)O)C(=O)N[C@@H](Cc2ccc(O)cc2)C(=O)N[C@H](Cc2c[nH]c3ccccc23)C(=O)N[C@@H](CCCCN)C(=O)N[C@@H]([C@@H](C)O)C(=O)N1)C(=O)O` [Compound I-12, (Z360)-E-gE-OEG-gE-K(DOTA)-OEG-f[CYwKTC]T-OH], the “Relative Binding Affinity CCK2R” value on CCK2R (based on mean IC50, C-2 = 1.00) is 255. For the same compound, on SSTR2 (based on mean IC50, C-1 = 1.00), the “Relative Binding Affinity SSTR2” value came out at 0.61.
The matching figures for `C[C@@H](O)[C@H](NC(=O)[C@@H]1CSSC[C@H](NC(=O)[C@@H](Cc2ccccc2)NC(=O)COCCOCCNC(=O)[C@H](CCCCNC(=O)CC[C@H](NC(=O)CNC(=O)c2cccc(NC(=O)N[C@@H]3CN(C4CCCCC4)c4ccccc4N(CC(=O)C(C)(C)C)C3=O)c2)C(=O)O)NC(=O)CC[C@H](NC(=O)CC[C@H](NC(=O)CN2CCN(CC(=O)O)CCN(CC(=O)O)CCN(CC(=O)O)CC2)C(=O)O)C(=O)O)C(=O)N[C@@H](Cc2ccc(O)cc2)C(=O)N[C@H](Cc2c[nH]c3ccccc23)C(=O)N[C@@H](CCCCN)C(=O)N[C@@H]([C@@H](C)O)C(=O)N1)C(=O)O` [Compound I-10, DOTA-gE-gE-K(-gE-G-Z360)-OEG-f[CYwKTC]T-OH]: 275 and 0.78.
`C[C@@H](O)[C@H](NC(=O)[C@@H]1CSSC[C@H](NC(=O)[C@@H](Cc2ccccc2)NC(=O)COCCOCCNC(=O)COCCOCCNC(=O)[C@H](CCCCNC(=O)CCC(C(=O)O)N2CCN(CC(=O)O)CCN(CC(=O)O)CCN(CC(=O)O)CC2)NC(=O)COCCOCCNC(=O)COCCOCCNC(=O)CC[C@H](NC(=O)CC[C@H](NC(=O)c2cccc(NC(=O)N[C@@H]3CN(C4CCCCC4)c4ccccc4N(CC(=O)C(C)(C)C)C3=O)c2)C(=O)O)C(=O)O)C(=O)N[C@@H](Cc2ccc(O)cc2)C(=O)N[C@H](Cc2c[nH]c3ccccc23)C(=O)N[C@@H](CCCCN)C(=O)N[C@@H]([C@@H](C)O)C(=O)N1)C(=O)O` (stereo partly shown) [Compound I-17, (Z360)- gE- gE- OEG- OEG- K(DOTAGA)- OEG- OEG- f[CYwKTC]T- OH (]: on CCK2R (based on mean IC50, C-2 = 1.00), the “Relative Binding Affinity CCK2R” value is given as 17.3. In addition, on SSTR2 (based on mean IC50, C-1 = 1.00), the “Relative Binding Affinity SSTR2” value is 0.16.
The matching figures for `C[C@@H](O)[C@@H]1NC(=O)[C@H](CCCCN)NC(=O)[C@@H](Cc2c[nH]c3ccccc23)NC(=O)[C@H](Cc2ccc(O)cc2)NC(=O)[C@@H](NC(=O)[C@@H](Cc2ccccc2)NC(=O)[C@H](CCCCNC(=O)[C@H](CCC(=O)O)NC(=O)c2cccc(NC(=O)N[C@@H]3CN(C4CCCCC4)c4ccccc4N(CC(=O)C(C)(C)C)C3=O)c2)NC(=O)CN2CCN(CC(=O)O)CCN(CC(=O)O)CCN(CC(=O)O)CC2)CSSC[C@@H](C(=O)N[C@H](CO)[C@@H](C)O)NC1=O` [Compound I-6, DOTA-K(-E-Z360)-f[CYwKTC]-Thr(ol)]: 19.7 and 0.20.
As for `C[C@@H](O)[C@H](NC(=O)[C@@H]1CSSC[C@H](NC(=O)[C@@H](Cc2ccccc2)NC(=O)COCCOCCNC(=O)[C@H](CCCCNC(=O)CC[C@H](NC(=O)CNC(=O)c2cccc(NC(=O)NC3CN(C4CCCCC4)c4ccccc4N(CC(=O)C(C)(C)C)C3=O)c2)C(=O)O)NC(=O)COCCOCCNC(=O)COCCOCCNC(=O)[C@@H](N)CCCCNC(=O)[C@@H](N)CCCCNC(=O)CN2CCN(CC(=O)O)CCN(CC(=O)O)CCN(CC(=O)O)CC2)C(=O)N[C@@H](Cc2ccc(O)cc2)C(=O)N[C@H](Cc2c[nH]c3ccccc23)C(=O)N[C@@H](CCCCN)C(=O)N[C@@H]([C@@H](C)O)C(=O)N1)C(=O)O` (stereo partly shown) [Compound I-65, DOTA-eK-eK-OEG-OEG-K(-gE-G-Z360)-OEG-f[CYwKTC]T-OH], the IC50 at CCK2R was determined as 9.4 nM; on SSTR2, 0.136 nM. Moreover, the “Relative Binding Affinity CCK2R” value at CCK2R (based on mean IC50, C-2 = 1.00) is 1.8. Moreover, the “Relative Binding Affinity SSTR2” value on SSTR2 (based on mean IC50, C-1 = 1.00) came to 20.7.
For `CCCC[C@H](NC(=O)[C@H](Cc1c[nH]c2ccccc12)NC(=O)CNC(=O)[C@H](Cc1ccc(O)cc1)NC(=O)[C@H](C)NC(=O)[C@@H](CCC(=O)O)NC(=O)[C@@H](CCC(=O)O)NC(=O)[C@@H](CCC(=O)O)NC(=O)[C@@H](CCC(=O)O)NC(=O)[C@@H](CCC(=O)O)NC(=O)[C@@H](CCC(=O)O)NC(=O)CN1CCN(CC(=O)O)CCN(CC(=O)O)CCN(CC(=O)O)CC1)C(=O)N[C@@H](CC(=O)O)C(=O)N[C@@H](Cc1ccccc1)C(N)=O` [Compound C-2, DOTA-e-e-e-e-e-e-AYGW-Nle-DF-NH2, reference compound], on CCK2R, the IC50 is 17 nM. In addition, at CCK2R (based on mean IC50, C-2 = 1.00), the “Relative Binding Affinity CCK2R” value is given as 1.00. Further, the “Relative Binding Affinity SSTR2” value on SSTR2 (based on mean IC50, C-1 = 1.00) is reported as less than 0.001.
For the compound `C[C@@H](O)[C@H](NC(=O)[C@@H]1CSSC[C@H](NC(=O)[C@@H](Cc2ccccc2)NC(=O)[C@H](CCCCNC(=O)[C@H](CCC(=O)O)NC(=O)c2cccc(NC(=O)N[C@@H]3CN(C4CCCCC4)c4ccccc4N(CC(=O)C(C)(C)C)C3=O)c2)NC(=O)CN2CCN(CC(=O)O)CCN(CC(=O)O)CCN(CC(=O)O)CC2)C(=O)N[C@@H](Cc2ccc(O)cc2)C(=O)N[C@H](Cc2c[nH]c3ccccc23)C(=O)N[C@@H](CCCCN)C(=O)N[C@@H]([C@@H](C)O)C(=O)N1)C(N)=O` [Compound I-4, DOTA-K(-E-Z360)-f[CYwKTC]T-NH2], at CCK2R (based on mean IC50, C-2 = 1.00), the “Relative Binding Affinity CCK2R” value is 53.1. For the same compound, the “Relative Binding Affinity SSTR2” value on SSTR2 (based on mean IC50, C-1 = 1.00) is reported as 0.90.
